Patent US9133435B2, “Method for induction/differentiation into photoreceptor cell” (RIKEN, priority 2007, dated 2015)
One block for each molecule: values may come before it.

What was measured:
Retinae of E17.5 mouse = assay: Tissue culture of embryonic retina treated with DAPT (Crx staining, RT-PCR); assay type: cell-based; details: 10 μM DAPT
Protocol: FIG. 4 The gamma secretase inhibitor DAPT promotes the differentiation of photoreceptor precursors. Retinae of E17.5 mouse were treated, or not treated, with 10 μM DAPT under tissue culture conditions for 2-4 days. (a, b) Two days later, the retinae were stained for Crx (green) and TOTO-3 (blue). Many Crx^+ (green) photoreceptor precursors were found in the DAPT-treated retina (a), whereas several Crx^+ were found in non-treated retina (b). GC, ganglion cell layer; NBL, neuroblastic layer; ONL, outer nuclear layer. (c) RT-PCR analysis of retina treated or not treated with DAPT for 2 or 4 days. It was confirmed that the expression of Hes1 and Hes5 had been decreased in the DAPT-treated retina.
RT-PCR analysis was performed as reported previously (reference documents A7, 20). The primers used are as follows: […]

purified Rx+ cells = assay: Ki67 expression, BrdU uptake and active caspase 3 in purified Rx+ cells; assay type: cell-based, mouse
Protocol: (§1) For FACS (see below), until day 9, cell aggregates were incubated in a differentiation medium under suspension culture conditions. After FACS, 1−2×10^4 sorted cells were re-suspended in a differentiation medium containing 10% FCS, and to produce re-aggregated pellets, the suspension was centrifuged at 800 g for 10 minutes. After cultivation at 37° C. for 1 hour, three to five re-aggregated pellets per cm^2 were replated on a poly-D-lysine/laminin/fibronectin-coated culture slides with a differentiation medium supplemented with 10% FCS. On day 10, the culture medium was changed to a differentiation medium not containing FCS, and containing or not containing the gamma secretase inhibitor N—[N-(3,5-difluorophenacetyl)-L-alanyl]-S-phenylglycine t-butyl ester (DAPT, 10 μM, Calbiochem).
BrdU uptake was examined by culturing the cells in a medium containing 5 μg/ml BrdU for 24 hours before fixation.
(§2) Immunohistological staining was performed as described previously (reference documents A20, 24). The primary antibodies used in this study were as follows: • Anti-Crx (rat/polyclonal/1:200, reference document A6), • Anti-Ki67 (mouse/monoclonal/1:200/BD), • Anti-BrdU (mouse/monoclonal/1:50/BD), • Anti-active caspase-3 (rabbit/monoclonal/1:500/BD), • Anti-red/green opsin (rabbit/polyclonal/1:1000/Chemicon), • Anti-blue opsin (rabbit/polyclonal/1:500/Chemicon), • Anti-rhodopsin (RetP1; mouse/monoclonal/1:1000/SIGMA) and • Anti-Recoverin (rabbit/polyclonal/1:5000/Chemicon).
(§3) The immunoreactivity of each antibody was confirmed by immunostaining an appropriate retinal tissue as a positive control under the same conditions. Total cell counts were determined by counting nuclei stained by TOTO-3 or DAPI (Molecular Probes). Positive cells were counted in optical slice images prepared by confocal (Leica) or ApoTome (Zeiss) microscopy.
(§4) For statistical analyses, at least 2500 cells were examined in each experiment, which was performed at least 3 times. All statistical analyses were performed using GraphPad InStat version 3.0 (GraphPad Software Inc., San Diego, Calif., USA). The statistical significance of differences was determined by one-way analysis of variance (ANOVA) followed by Tukey's test for the experiments in FIG. 1f, by one-way ANOVA followed by Dunnett's multiple comparison test for the experiment in FIG. 3b, by two-way ANOVA followed by Bonferroni's test for the experiment in FIG. 1j-l. Probability values less than 5% were considered significant.

[1] = tested on: FACS-purified ES-derived Rx-GFP+ retinal progenitor cells; assay: Differentiation of FACS-purified ES-derived retinal progenitor cells into Crx+ photoreceptor precursors (immunostaining); assay type: cell-based, mouse
Protocol: Methods for mouse ES cell maintenance and differentiation in SFEB conditions were previously reported (reference documents A7, 20). For the sake of the SFEB/DLFA, Dkk1 (R & D Systems, 100 ng/ml, during days 0-5), LeftyA (R & D Systems, 500 ng/ml, during days 0-5), 5% FCS (JRH Biosciences, during days 3-5), and Activin-A (R & D Systems, 10 ng/ml, during days 4-5) were added to a differentiation medium (G-MEM, 5% KSR, 0.1 mM non-essential amino acids, 1 mM pyruvic acid, and 0.1 mM 2-mercaptoethanol) (reference document A6).
as §1
On day 9, SFEB/DLFA-treated ES cell aggregates were dissociated with trypsin (0.25%, Invitrogen) and DNaseI (10 μg/ml, Sigma) into single cells. After neutralization, the cells were re-suspended in HBSS containing 0.1% BSA and 5 μg/ml propidium iodide (PI, Sigma), and passed through a cell strainer (BD) as described previously (reference documents A7, 21). The cells were counted and sorted using FACS Aria (BD Biosciences), and data were analyzed using the FACS Diva software (BD Biosciences). Dead cells were excluded by gating forward and side scatter and PI staining. Cells with Rx-GFP fluorescence (band-pass filter: FITC, 530 nm) were sorted and further cultured. […]
as §3
as §4, with “All statistical analyses were performed using GraphPad InStat version 3.0 (GraphPad Software Inc., San Diego, Calif., USA).” left out, “Probability values less than 5% were considered significant.” left out

[2] = tested on: purified ES-derived Rx+ cells; assay: Differentiation of ES-derived photoreceptor precursors into opsin+ cone and rhodopsin+ rod photoreceptors; assay type: cell-based, mouse; details: for rod differentiation, factor added individually: after FACS purification and DAPT, acidic FGF 50 ng/ml, basic FGF 10 ng/ml, taurine 1 mM, shh 3 nM, RA 500 nM, from day 16, day 28
Protocol: as §1
For photoreceptor differentiation, on day 16, the medium was replaced with a retinal culture medium containing the factors shown in FIG. 3a (66% E-MEM-HEPES (Sigma M7278), 33% HBSS (Gibco 24020-117), 1% FCS supplemented with N2, 5.75 mg/ml glucose, 200 μM L-glutamine, 100 U/ml penicillin, and 100 μg/ml streptomycin (Gibco)). aFGF (R & D Systems) and bFGF (R & D Systems) were added during differentiation for 16-24 days; taurine (Sigma), shh (R & D Systems), and RA (Sigma) were added during differentiation days 16-28. The medium was replaced with a fresh supply every 2 days.
as §2, §3, §4

mouse ES cells = assay: Induction of differentiation of mouse ES cells into neural cells (βII tubulin-positive cells); assay type: cell-based; details: SB-431542 0.1 to 10 μM or CKI-7 1 to 100 μM, single agent
Protocol: Mouse ES cells were cultured in the presence of SB-431542 (0.1 to 10 μM) and/or CKI-7 (1 to 100 μM) under SFEB conditions. Five days after the start of the culture, the cells were recovered and re-suspended in a fresh differentiation medium, and, to produce re-aggregated pellets, the suspension was centrifuged at 800 g for 10 minutes. After cultivation at 37° C. for 1 hour, three to five re-aggregated pellets per cm^2 were replated onto poly-D-lysine/laminin/fibronectin-coated culture slides, along with differentiation medium. After cultivation for 5 days, the cells were fixed and stained with anti-βII tubulin antibody, and the ratio of βII tubulin-positive cells was determined under microscopy. The other experimental conditions were the same as those for Example 1.

monkey ES cells = assay: Differentiation of monkey ES cells into retinal cells (SFEB culture, immunocytochemistry); assay type: cell-based, cynomolgus monkey; details: day 40, Dkk-1 100 ng/ml, Lefty-A 500 ng/ml
Protocol: ES colonies were partially dissociated with 0.25% trypsin (in a PBS containing 1 mM CaCl2 and 20% KSR) into clumps (5 to 10 cells per clump). It is noticeable that when this clumps of ES cells were too large (for example, exceeding 50 cells per aggregate), the neural induction efficiency declined. When ES cells dispersed to single cells were used, the cell viability declined, and retinal cells could not efficiently be induced. ES clumps were incubated on a gelatin-coated dish for 30 minutes, whereby STO feeders were removed. ES clumps were plated on a dish of bacterial grade using an ES differentiation medium at a density of 6.7×10^3 aggregate per ml. The composition of the differentiation medium was as follows. [G-MEM (GIBCO), 10% KSR, Lot.1139720 and 1219101, 0.1 mM non-essential amino acids, 1 mM pyruvate and 0.1 mM 2-mercaptoethanol]. […]
Values are expressed as means±S.E.M. For statistic analysis, 100 to 200 colonies in each experiment were examined, each experiment being performed at least 3 times. […] For the experiments in FIG. 7b, statistical significance of difference was determined by one-way analysis of variance (ANOVA) followed by Dunnet's test. The data obtained from FIG. 8a, d, e, h and i were evaluated by unpaired t-test. […]

[3] = DAPT from day 10, retinal differentiation medium from day 16, day 28

ratio of Crx+ photoreceptor precursors in embryonic retinal tissue (Retinae of E17.5 mouse; tissue culture): considerably increased
proportion of cells positive for active caspase (purified Rx+ cells; day 11): 0.17±0.04%
proportion of cells positive for active caspase (purified Rx+ cells; day 12): 0.13±0.04%
proportion of cells positive for active caspase (purified Rx+ cells; day 14): 0.10±0.07%
proportion of cells positive for active caspase (purified Rx+ cells; day 16): 0.10±0.01%
proportion of cells positive for active caspase (purified Rx+ cells; day 18): 0.13±0.02%
proportion of cells positive for active caspase (purified Rx+ cells; day 20): 0.10±0.15%
proportion of cells positive for active caspase, DAPT-treated versus non-treated (purified Rx+ cells; days 11-20, Ki67+ population): no significant difference
Molecule: C[C@H](NC(=O)Cc1cc(F)cc(F)c1)C(=O)N[C@H](C(=O)OC(C)(C)C)c1ccccc1 [DAPT, N—[N-(3,5-difluorophenacetyl)-L-alanyl]-S-phenylglycine t-butyl ester]
expression of the differentiation inhibitors Hes1 and Hes5 (Retinae of E17.5 mouse; tissue culture 2 or 4 days, RT-PCR): suppressed
Ki67+ cell population versus non-treated cells (purified Rx+ cells; day 14 and thereafter, DAPT from day 10): smaller
BrdU+ cells versus non-treated control (purified Rx+ cells; days 14-20, BrdU uptake 24 hours): fewer
frequency of Crx+ cell aggregates ([1]; 10 μM DAPT, most effective on days 10 to 20): significantly raised
Crx expression in Rx-GFP− cells ([1]; Rx-GFP− cells treated with DAPT from day 10, day 20): did not express Crx
promotion of differentiation into Crx+ photoreceptor precursors in non-FACS-sorted cells ([1]; non-FACS-sorted ES cell-derived neural retinal progenitor cells treated with DAPT): no evident promotion
percentage of Crx+ cells ([1]; sorted Rx-GFP+ cells, 10 μM DAPT from day 10, determined on day 20): 22.4±2.9%
ES-derived cells expressing blue opsin [2, 3]: 10.7±1.6%
ES-derived cells expressing red/green opsin [2, 3]: 11.5±2.0%
cells expressing rhodopsin ([2]; DAPT only, no further factors, day 28): 5.5±0.5%

Molecule: NC(=O)c1ccc(-c2nc(-c3ccc4c(c3)OCO4)c(-c3ccccn3)[nH]2)cc1 [SB-431542]
number of βII tubulin-positive cells (mouse ES cells): increased

Molecule: acidic FGF: acidic FGF (R & D Systems), soluble factor
rod differentiation, factor added individually [2]: promoted rod differentiation

Molecule: NCCNS(=O)(=O)c1ccc(Cl)c2ccncc12 [CKI-7, N-(2-aminoethyl)-5-chloro-isoquinoline-8-sulfonamide]
number of βII tubulin-positive cells (mouse ES cells): increased

Molecule: basic FGF: basic FGF (R & D Systems), soluble factor
rod differentiation, factor added individually [2]: promoted rod differentiation

Molecule: NCCS(=O)(=O)O [taurine]
rod differentiation, factor added individually [2]: promoted rod differentiation

B1: Dkk-1: Recombinant Dkk-1 protein, Wnt antagonist (protein, UniProt O94907 32-266, looked up)
Dickkopf-related protein 1: TLNSVLNSNAIKNLPPPLGGAAGHPGSAVSAAPGILYPGGNKYQTIDNYQPYPCAEDEECGTDEYCASPTRGGDAGVQICLACRKRRKRCMRHAMCCPGNYCKNGICVSSDQNHFRGEIEETITESFGNDHSTLDGYSRRTTLSSKMYHTKGQEGSVCLRSSDCASGLCCARHFWSKICKPVLKEGQVCTKHRRKGSHGLEIFQRCYCGEGLSCRIQKDHHQASNSSRLHTCQRH
ratio of Mitf+ colonies (monkey ES cells): 35.3±4.4%

B2: Lefty-A: Lefty-A protein, nodal antagonist (protein, UniProt O00292 77-366, looked up)
Left-right determination …: RFSQSFREVAGRFLASEASTHLLVFGMEQRLPPNSELVQAVLRLFQEPVPKAALHRHGRLSPRSAQARVTVEWLRVRDDGSNRTSLIDSRLVSVHESGWKAFDVTEAVNFWQQLSRPRQPLLLQVSVQREHLGPLASGAHKLVRFASQGAPAGLGEPQLELHTLDLRDYGAQGDCDPEAPMTEGTRCCRQEMYIDLQGMKWAKNWVLEPPGFLAYECVGTCQQPPEALAFNWPFLGPRQCIASETASLPMIVSIKEGGRTRPQVVSLPNMRVQKCSCASDGALVPRRLQP
ratio of Mitf+ colonies (monkey ES cells): 50.8±5.0%
